Assay results: patent US9593155B2, “Oxyntomodulin analogs” (priority 2009, dated 2017)
*1 amine or outer side, *2 acyl side, *3 side chain or, on linkers, in order; H or OH if unused. Where a SMILES comes first, the peptide text is derived from it. Side-chain parts run from the residue outwards. [ ]: non-standard residue; d: D form. The star is where a group is joined. X3 = CC(C)CCC[C@@H](C)[C@H]1CC[C@H]2[C@@H]3CC=C4C[C@@H](OC(=O)CCOCCOCCOCCOCCNC(=O)C*)CC[C@]4(C)[C@H]3CC[C@]12C; γGlu = O=C(O)[C@H](CCC(=O)[*:2])N[*:1]; Palmitoyl = CCCCCCCCCCCCCCCC(=O)*

Tests used:
hGCGR = hGCGR (Homo sapiens, UniProt P47871); assay: cell-based cAMP assay as described in WO2008101017 (Table 11), hGCGR
Excerpt: This example presents tables showing the in vitro potencies of various peptide analogs at the human GLP-1 receptor (hGLP-1R) and the human glucagon receptor (hGCGR).

[1] = system: human mast cell line LAD2; assay: mast cell degranulation counterscreen, beta-hexosaminidase release; type: cell-based; conditions: LAD2 cells, 30 minutes; read-out: Degranulation potency EC50
Description: LAD2 cells (50,000 cells/well, 96-well plate) were incubated with compounds for 30 minutes. The degranulation of LAD2 cells was determined by quantification of the β-hexosaminidase released into the supernatants and in cell lysates after hydrolysis of 4-methylumbelliferyl-N-acetyl-β-D-glucosaminide. Results are expressed as percentage of β-hexosaminidase release, calculated as percent of total content.

[2] = pI of the peptide analogs; conditions: Table 10

Chain of hGCGR (P47871 26-477): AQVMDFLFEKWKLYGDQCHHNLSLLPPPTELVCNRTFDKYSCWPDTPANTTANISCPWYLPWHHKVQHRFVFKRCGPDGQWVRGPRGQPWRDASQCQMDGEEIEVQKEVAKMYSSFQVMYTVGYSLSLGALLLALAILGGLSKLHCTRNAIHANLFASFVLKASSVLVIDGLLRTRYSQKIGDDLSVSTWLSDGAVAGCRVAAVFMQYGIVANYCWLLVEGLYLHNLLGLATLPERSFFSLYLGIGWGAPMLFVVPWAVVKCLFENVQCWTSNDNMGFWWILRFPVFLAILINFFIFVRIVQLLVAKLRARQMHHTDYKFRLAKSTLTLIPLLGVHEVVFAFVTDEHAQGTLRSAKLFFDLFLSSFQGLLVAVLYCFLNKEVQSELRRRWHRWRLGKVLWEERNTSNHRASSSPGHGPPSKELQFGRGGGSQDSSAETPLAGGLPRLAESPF

Row | Compound | EC50 (hGCGR) [nM] | EC50 [1] [nM] | pI [2]
1 | CCCCCCCCCCCCCC(=O)N[C@@H](CCC(=O)N[C@@H](CCC(=O)NCCCC[C@H](NC(=O)[C@H](CC(=O)O)NC(=O)[C@H](CO)NC(=O)[C@@H](NC(=O)[C@H](Cc1ccccc1)NC(=O)[C@@H](NC(=O)CNC(=O)[C@H](CCC(N)=O)NC(=O)[C@@H](CO)NC(=O)[C@@H](N)Cc1c[nH]cn1)[C@@H](C)O)[C@@H](C)O)C(=O)N[C@@H](CO)C(=O)N[C@@H](CCCCN)C(=O)N[C@@H](Cc1ccc(O)cc1)C(=O)N[C@@H](CC(C)C)C(=O)N[C@@H](CC(=O)O)C(=O)NC(C)(C)C(=O)N[C@@H](CCCNC(=N)N)C(=O)N[C@@H](CCCNC(=N)N)C(=O)N[C@@H](C)C(=O)N[C@@H](CCC(N)=O)C(=O)N[C@@H](CC(=O)O)C(=O)N[C@@H](Cc1ccccc1)C(=O)N[C@H](C(=O)N[C@@H](CCC(N)=O)C(=O)N[C@@H](Cc1c[nH]c2ccccc12)C(=O)N[C@@H](CC(C)C)C(=O)N[C@@H](CCSC)C(=O)N[C@@H](CC(N)=O)C(=O)N[C@H](C(=O)N[C@@H](CCCCN)C(=O)N[C@@H](CCC(N)=O)C(=O)O)[C@@H](C)O)C(C)C)C(=O)O)C(=O)O [MM121] | 0.006 |  | 
2 | CCCCCCCCCCCCCCCCCC(=O)N[C@@H](CCC(=O)N[C@@H](CCC(=O)NCCCC[C@H](NC(=O)[C@H](CC(=O)O)NC(=O)[C@H](CO)NC(=O)[C@@H](NC(=O)[C@H](Cc1ccccc1)NC(=O)[C@@H](NC(=O)CNC(=O)[C@H](CCC(N)=O)NC(=O)[C@@H](CO)NC(=O)[C@@H](N)Cc1c[nH]cn1)[C@@H](C)O)[C@@H](C)O)C(=O)N[C@@H](CO)C(=O)N[C@@H](CCCCN)C(=O)N[C@@H](Cc1ccc(O)cc1)C(=O)N[C@@H](CC(C)C)C(=O)N[C@@H](CC(=O)O)C(=O)NC(C)(C)C(=O)N[C@@H](CCCNC(=N)N)C(=O)N[C@@H](CCCNC(=N)N)C(=O)N[C@@H](C)C(=O)N[C@@H](CCC(N)=O)C(=O)N[C@@H](CC(=O)O)C(=O)N[C@@H](Cc1ccccc1)C(=O)N[C@H](C(=O)N[C@@H](CCC(N)=O)C(=O)N[C@@H](Cc1c[nH]c2ccccc12)C(=O)N[C@@H](CC(C)C)C(=O)N[C@@H](CCSC)C(=O)N[C@@H](CC(N)=O)C(=O)N[C@H](C(=O)N[C@@H](CCCCN)C(=O)N[C@@H](CCC(N)=O)C(=O)O)[C@@H](C)O)C(C)C)C(=O)O)C(=O)O [MM132] | 0.004 |  | 
3 | CSCC[C@H](NC(=O)[C@H](CC(C)C)NC(=O)[C@H](Cc1c[nH]c2ccccc12)NC(=O)[C@H](CCC(N)=O)NC(=O)[C@@H](NC(=O)[C@H](Cc1ccccc1)NC(=O)[C@H](CC(=O)O)NC(=O)[C@H](CCC(N)=O)NC(=O)[C@H](C)NC(=O)[C@H](C)NC(=O)[C@H](CCC(=O)O)NC(=O)[C@H](CO)NC(=O)[C@H](CC(=O)O)NC(=O)[C@H](CC(C)C)NC(=O)[C@H](Cc1ccc(O)cc1)NC(=O)[C@H](CCCCN)NC(=O)[C@H](CO)NC(=O)[C@H](Cc1ccc(O)cc1)NC(=O)[C@H](CC(=O)O)NC(=O)[C@H](CO)NC(=O)[C@@H](NC(=O)[C@H](Cc1ccccc1)NC(=O)[C@@H](NC(=O)CNC(=O)[C@H](CCC(N)=O)NC(=O)[C@@H](CO)NC(=O)[C@@H](N)Cc1c[nH]cn1)[C@@H](C)O)[C@@H](C)O)C(C)C)C(=O)N[C@@H](CC(N)=O)C(=O)N[C@H](C(=O)N[C@@H](CCCCN)C(=O)N[C@@H](CSCC(=O)NCCOCCOCCOCCOCCC(=O)O[C@H]1CC[C@@]2(C)C(=CC[C@H]3[C@@H]4CC[C@H]([C@H](C)CCCC(C)C)[C@@]4(C)CC[C@@H]32)C1)C(N)=O)[C@@H](C)O [OXM303] (H-H[dS]QGTFTSDYSKYLDSEAAQDFVQWLMNTKC(X3)-NH2; N-terminus assumed) |  | 100 | 
4 | CCCCCCCCCCCCCCCC(=O)N[C@@H](CCC(=O)N[C@@H](CCC(=O)NCCCC[C@H](NC(=O)[C@H](C)NC(=O)[C@H](CCCNC(=N)N)NC(=O)[C@H](CCCNC(=N)N)NC(=O)[C@H](CO)NC(=O)[C@H](CC(=O)O)NC(=O)[C@H](CC(C)C)NC(=O)[C@H](Cc1ccc(O)cc1)NC(=O)[C@H](CCCCN)NC(=O)[C@H](CO)NC(=O)[C@H](Cc1ccc(O)cc1)NC(=O)[C@H](CC(=O)O)NC(=O)[C@H](CO)NC(=O)[C@@H](NC(=O)[C@H](Cc1ccccc1)NC(=O)[C@@H](NC(=O)CNC(=O)[C@H](CCC(N)=O)NC(=O)[C@@H](CO)NC(=O)[C@@H](N)Cc1c[nH]cn1)[C@@H](C)O)[C@@H](C)O)C(=O)N[C@@H](CC(=O)O)C(=O)N[C@@H](Cc1ccccc1)C(=O)N[C@H](C(=O)N[C@@H](CCC(N)=O)C(=O)N[C@@H](Cc1c[nH]c2ccccc12)C(=O)N[C@@H](CC(C)C)C(=O)N[C@@H](CCSC)C(=O)N[C@@H](CC(N)=O)C(=O)N[C@H](C(=O)N[C@@H](CCCCN)C(=O)N[C@@H](CCC(N)=O)C(=O)O)[C@@H](C)O)C(C)C)C(=O)O)C(=O)O [OXM408] |  | > 10000 | 
5 | CCCCCCCCCCCCCCCC(=O)N[C@@H](CCC(=O)N[C@@H](CCC(=O)NCCCC[C@H](NC(=O)[C@H](C)NC(=O)[C@H](CCCNC(=N)N)NC(=O)[C@H](CCCNC(=N)N)NC(=O)[C@H](CCC(=O)O)NC(=O)[C@H](CC(=O)O)NC(=O)[C@H](CC(C)C)NC(=O)[C@H](Cc1ccc(O)cc1)NC(=O)[C@H](CCCCN)NC(=O)[C@H](CO)NC(=O)[C@H](Cc1ccc(O)cc1)NC(=O)[C@H](CC(=O)O)NC(=O)[C@H](CO)NC(=O)[C@@H](NC(=O)[C@H](Cc1ccccc1)NC(=O)[C@@H](NC(=O)CNC(=O)[C@H](CCC(N)=O)NC(=O)[C@@H](CO)NC(=O)[C@@H](N)Cc1c[nH]cn1)[C@@H](C)O)[C@@H](C)O)C(=O)N[C@@H](CC(=O)O)C(=O)N[C@@H](Cc1ccccc1)C(=O)N[C@H](C(=O)N[C@@H](CCC(N)=O)C(=O)N[C@@H](Cc1c[nH]c2ccccc12)C(=O)N[C@@H](CC(C)C)C(=O)N[C@@H](CCSC)C(=O)N[C@@H](CC(N)=O)C(=O)N[C@H](C(=O)N[C@@H](CCCCN)C(N)=O)[C@@H](C)O)C(C)C)C(=O)O)C(=O)O [OXM410] (H-H[dS]QGTFTSDYSKYLDERRAK([γGlu-γGlu-Palmitoyl])DFVQWLMNTK-NH2; N-terminus assumed) |  | > 10000 | 
6 | CCCCCCCCCCCCCCCC(=O)N[C@@H](CCC(=O)N[C@@H](CCC(=O)NCCCC[C@H](NC(=O)[C@H](CC(=O)O)NC(=O)[C@H](CO)NC(=O)[C@@H](NC(=O)[C@H](Cc1ccccc1)NC(=O)[C@@H](NC(=O)CNC(=O)[C@H](CCC(N)=O)NC(=O)[C@@H](CO)NC(=O)[C@@H](N)Cc1c[nH]cn1)[C@@H](C)O)[C@@H](C)O)C(=O)N[C@@H](CO)C(=O)N[C@@H](CCCCN)C(=O)N[C@@H](Cc1ccc(O)cc1)C(=O)N[C@@H](CC(C)C)C(=O)N[C@@H](CC(=O)O)C(=O)N[C@@H](CCC(=O)O)C(=O)N[C@@H](CCCNC(=N)N)C(=O)N[C@@H](CCCNC(=N)N)C(=O)N[C@@H](C)C(=O)N[C@@H](CCC(N)=O)C(=O)N[C@@H](CC(=O)O)C(=O)N[C@@H](Cc1ccccc1)C(=O)N[C@H](C(=O)N[C@@H](CCC(N)=O)C(=O)N[C@@H](Cc1c[nH]c2ccccc12)C(=O)N[C@@H](CC(C)C)C(=O)N[C@@H](CCSC)C(=O)N[C@@H](CC(N)=O)C(=O)N[C@H](C(=O)N[C@@H](CCCCN)C(N)=O)[C@@H](C)O)C(C)C)C(=O)O)C(=O)O [OXM411] (H-H[dS]QGTFTSDK([γGlu-γGlu-Palmitoyl])SKYLDERRAQDFVQWLMNTK-NH2; N-terminus assumed) |  | > 10000 | 5.4
